Source: patent US6610689B2, “HIV protease inhibitors based on amino acid derivatives” (priority 2001, dated 2003)
Counter-ions that a name gives are not always drawn. Like-named read-outs stand apart in the source and are kept apart here.

Target: T1, HIV protease (Human immunodeficiency virus type 1 group M subtype B, UniProt P04585)
T1 construct: A third viral enzyme known as protease then cleaves the polyproteins
Test: Enzymatic Assay for Determining the Inhibition Constant (Ki) of Synthetic Compounds Targeting the HIV Protease (fluorometric FRET assay)
Type: biochemical
Summary of the method: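 Ki obtained via the Henderson equation from enzyme velocities with and without compound, accounting for substrate concentration and Km. Activity followed by FRET fluorescence from cleavage of a substrate flanked by EDANS donor and DABCYL acceptor.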

[1] = Table 1, compounds of formula I, read-out: Ki (anti-protease activity)

Cc1ccc(S(=O)(=O)N(CC(C)C)[C@@H](CCCCNC(=O)[C@H](Cc2ccccc2)NC(=O)C(F)(F)F)C(=O)O)cc1 [Example 101, Nα-Isobutyl-Nα-(4-methylbenzenesulfonyl)-Nε-(N′α-trifluoroacetyl-L-phenylalanyl)-L-lysine]
Ki: 2.9 nM

Cc1ccc(S(=O)(=O)N[C@@H](Cc2c[nH]c3ccccc23)C(=S)NCCCC[C@@H](CO)N(CC(C)C)S(=O)(=O)c2ccc(C)cc2)cc1 [Example 102]
Ki: 51 nM

Cc1ccc(S(=O)(=O)NC(Cc2c[nH]c3ccccc23)C(=NC#N)NCCCCC(C(=O)O)N(CC(C)C)S(=O)(=O)c2ccc(C)cc2)cc1 [Example 103, Nα-Isobutyl-Nα-(4-methylbenzenesulfonyl)-Nε-[N′α-(4-methylbenzenesulfonyl)-L-tryptophanyl-N-cyanoamidine]-L-lysine]
Ki: 1.1 nM

Cc1ccc(S(=O)(=O)N(CC(C)C)C(CCCCNC(=O)C(Cc2c[nH]c3ccccc23)NS(=O)(=O)c2ccccc2)C(=O)OCC(O)CO)cc1 [Example 104, Nα-Isobutyl-Nα-(4-methylbenzenesulfonyl)-Nε-(N′α-benzenesulfonyl-L-tryptophanyl)-L-lysine 2,3-Dihydroxypropyl Ester]
Ki: > 300 nM

Cc1ccc(S(=O)(=O)N(CC(C)C)[C@@H](CCCCNC(=O)CNc2ccccc2)C(=O)O)cc1 [Example 105, Nα-Isobutyl-Nα-(4-methylbenzenesulfonyl)-Nε-(N′α-phenylglycyl)-L-lysine]
Ki [1]: 7.7 nM

Cc1ccc(S(=O)(=O)N(CC(C)C)[C@@H](CCCCNC(=O)CNc2cccnc2)C(=O)O)cc1 [Example 106, Nα-Isobutyl-Nα-(4-methylbenzenesulfonyl)-Nε-[N′α-(3-pyridyl)glycyl]-L-lysine]
Ki: > 300 nM

COc1cccc(CNCC(=O)NCCCC[C@@H](C(=O)O)N(CC(C)C)S(=O)(=O)c2ccc(C)cc2)c1OC [Example 107, Nα-Isobutyl-Nα-(4-methylbenzenesulfonyl)-Nε-[N′α-(2,3-dimethoxybenzyl)glycyl]-L-lysine]
Ki: 52 nM

Cc1ccc(S(=O)(=O)N(CC(C)C)[C@@H](CCCCNC(=O)CNc2ccccn2)C(=O)O)cc1 [Example 108, Nα-Isobutyl-Nα-(4-methylbenzenesulfonyl)-Nε-[N′α-(2-pyridyl)glycyl]-L-lysine]
Ki [1]: > 300 nM

Cc1ccc(S(=O)(=O)N(CC(C)C)[C@@H](CCCCNC(=O)CNCCN2CCCCC2)C(=O)O)cc1 [Example 110, Nα-Isobutyl-Nα-(4-methylbenzenesulfonyl)-Nε-[N′α-(piperidinyl-N-ethyl)glycyl]-L-lysine Trifluoroacetic Acid Salt]
Ki [1]: > 300 nM

Cc1ccc(S(=O)(=O)N(CC(C)C)[C@@H](CCCCNC(=O)CNCCN2CCOCC2)C(=O)O)cc1 [Example 111, Nα-Isobutyl-Nα-(4-methylbenzenesulfonyl)-Nε-[N′α-(4-niorpholinyl-N-ethyl)glycyl]-L-lysine]
Ki: > 300 nM

Cc1ccc(S(=O)(=O)N(CC(C)C)[C@@H](CCCCNC(=O)CNc2ccncc2)C(=O)O)cc1 [Example 112, Nα-Isobutyl-Nα-(4-methylbenzenesulfonyl)-Nε-[N′α-(4-pyridyl)glycyl]-L-lysine]
Ki [1]: > 300 nM

Cc1ccc(S(=O)(=O)N(CC(C)C)[C@@H](CCCCNC(=O)CNc2cnc3ccccc3c2)C(=O)O)cc1 [Example 113, Nα-Isobutyl-Nα-(4-methylbenzenesulfonyl)-Nε-[N′α-(3-quinolyl)glycyl]-L-lysine]
Ki: 12 nM

Cc1ccc(S(=O)(=O)N(CC(C)C)[C@@H](CCCCNC(=O)CN(Cc2ccccc2)c2ccccc2)C(=O)O)cc1 [Example 114, Nα-Isobutyl-Nα-(4-methylbenzenesulfonyl)-Nε-(N′α-benzyl-N′α-phenylglycyl)-L-lysine]
Ki [1]: 0.937 nM

Cc1ccc(S(=O)(=O)N(CC(C)C)[C@@H](CCCCNC(=O)CN(C)c2ccccc2)C(=O)O)cc1 [Example 115, Nα-Isobutyl-Nα-(4-methylbenzenesulfonyl)-Nε-(N′α-methyl-N′α-phenylglycyl)-L-lysine]
Ki [1]: 12 nM

Cc1ccc(S(=O)(=O)N[C@@H](Cc2c[nH]c3ccccc23)C(=O)NCCCC[C@@H](C=O)N(CC(C)C)S(=O)(=O)c2ccc(C)cc2)cc1 [Example 116, (2S,2′S) 2-N-Isobutyl-2-N-(4-methylbenzenesulfonyl)-6-N-[N′α-(4-methylbenzenesulfonyl)-S-tryptophanyl]-2,6-diaminohexanal]
Ki [1]: > 300 nM

Cc1ccc(S(=O)(=O)N(CC(C)C)[C@H](CO)CCCCNC(=O)[C@H](Cc2c[nH]c3ccccc23)NC(=O)C(C)(C)C)cc1 [Example 117, (2S,2′S) 2-N-Isobutyl-2-N-(4-methylbenzenesulfonyl)-6-N-(N′α-pivaloyl-S-tryptophanyl)-2,6-diaminohexanol]
Ki: 0.428 nM

CC(=O)N[C@@H](Cc1ccccc1)C(=O)NCCCC[C@@H](CO)N(CC(C)C)S(=O)(=O)c1ccc(C)cc1 [Example 118, (2S,2′S) 2-N-Isobutyl-2-N-(4-methylbenzenesulfonyl)-6-N-(N′α-acetyl-S-phenylalanyl)-2,6-diaminohexanol]
Ki: 13 nM

Cc1ccc(S(=O)(=O)N(CC(C)C)[C@H](CO)CCCCNC(=O)[C@H](Cc2ccccc2)NC(=O)C(C)(C)C)cc1 [Example 119, (2S,2′S) 2-N-Isobutyl-2-N-(4-methylbenzenesulfonyl)-6-N-(N′α-pivaloyl-S-phenylalanyl)-2,6-diaminohexanol]
Ki: 3.9 nM

Cc1ccc(S(=O)(=O)N(CC(C)C)[C@H](CO)CCCCNC(=O)[C@H](Cc2ccccc2)NC(=O)N2CCOCC2)cc1 [Example 120, (2S,2′S) 2-N-Isobutyl-2-N-(4-methylbenzenesulfonyl)-6-N-[N′α-(4-morpholinecarbonyl)-S-phenylalanyl]-2,6-diaminohexanol]
Ki: 2.4 nM

CC(=O)Nc1ccc(S(=O)(=O)N[C@@H](Cc2ccccc2)C(=O)NCCCC[C@@H](CO)N(CC(C)C)S(=O)(=O)c2ccc(C)cc2)cc1 [Example 121, (2S,2′S) 2-N-Isobutyl-2-N-(4-methylbenzenesulfonyl)-6-N-[N′α-(4-acetylaminobenzenesulfonyl)-S-phenylalanyl]-2,6-diaminohexanol]
Ki: 23 nM

Cc1ccc(S(=O)(=O)N(CC(C)C)[C@H](CO)CCCCNC(=O)[C@H](Cc2ccccc2)NS(=O)(=O)c2cccs2)cc1 [Example 122, (2S,2′S) 2-N-Isobutyl-2-N-(4-methylbenzenesulfonyl)-6-N-[N′α-(2-thiophenesulfonyl)-S-phenylalanyl]-2,6-diaminohexanol]
Ki [1]: 8.2 nM

Cc1ccc(S(=O)(=O)N(CC(C)C)[C@H](CO)CCCCNC(=O)[C@H](Cc2ccccc2)NS(=O)(=O)c2ccccc2)cc1 [Example 123, (2S,2′S) 2-N-Isobutyl-2-N-(4-methylbenzenesulfonyl)-6-N-(N′α-benzenesulfonyl-S-phenylalanyl)-2,6-diaminohexanol]
Ki: 14 nM

Cc1ccc(S(=O)(=O)N[C@@H](Cc2ccc([N+](=O)[O-])cc2)C(=O)NCCCC[C@@H](CO)N(CC(C)C)S(=O)(=O)c2ccc(C)cc2)cc1 [Example 124, (2S,2′S) 2-N-Isobutyl-2-N-(4-methylbenzenesulfonyl)-6-N-[N′α-(4-methylbenzenesulfonyl)-S-4-nitrophenylalanyl]-2,6-diaminohexanol]
Ki: 12 nM

Cc1ccc(S(=O)(=O)N(CC(C)C)[C@H](CO)CCCCNC(=O)[C@H](Cc2ccccc2)NS(=O)(=O)c2ccc(F)cc2)cc1 [Example 125, (2S,2′S) 2-N-Isobutyl-2-N-(4-methylbenzenesulfonyl)-6-N-[N′α-(4-fluorobenzenesulfonyl)-S-phenylalanyl]-2,6-diaminohexanol]
Ki [1]: 39 nM

COc1ccc(S(=O)(=O)N[C@@H](Cc2ccccc2)C(=O)NCCCC[C@@H](CO)N(CC(C)C)S(=O)(=O)c2ccc(C)cc2)cc1 [Example 126, (2S,2′S) 2-N-Isobutyl-2-N-(4-methylbenzenesulfonyl)-6-N-[N′α-(4-methoxybenzenesulfonyl)-S-phenylalanyl]-2,6-diaminohexanol]
Ki: 19 nM

Cc1ccc(S(=O)(=O)N(CC(C)C)[C@H](CO)CCCCNC(=O)[C@H](Cc2ccccc2)NS(=O)(=O)c2ccc(C(F)(F)F)cc2)cc1 [Example 127, (2S,2′S) 2-N-Isobutyl-2-N-(4-methylbenzenesulfonyl)-6-N-[N′α-(4-trifluoromethylbenzenesulfonyl)-S-phenylalanyl]-2,6-diaminohexanol]
Ki: 164 nM

Cc1ccc(S(=O)(=O)N(CC(C)C)[C@H](CO)CCCCNC(=O)[C@H](Cc2c[nH]c3ccccc23)NS(=O)(=O)c2ccccc2)cc1 [Example 128, (2S,2′S) 2-N-Isobutyl-2-N-(4-methylbenzenesuilfonyl)-6-N-(N′α-benzenesulfonyi-S-tryptophanyl)-2,6-diaminohexanol]
Ki [1]: 0.95 nM

Cc1ccc(S(=O)(=O)N(CC(C)C)[C@H](CO)CCCCNC(=O)[C@H](Cc2c[nH]c3ccccc23)NS(=O)(=O)c2cccs2)cc1 [Example 129, (2S,2′S) 2-N-Isobutyl-2-N-(4-methylbenzenesulfonyl)-6-N-[N′α-(2-thiophenesulfonyl)-S-tryptophanyl]-2,6-diaminohexanol]
Ki: 1 nM

Cc1ccc(S(=O)(=O)N(CC(C)C)[C@H](CO)CCCCNC(=O)[C@H](Cc2c[nH]c3ccccc23)NS(=O)(=O)c2ccc([N+](=O)[O-])cc2)cc1 [Example 130, (2S,2′S) 2-N-Isobutyl-2-N-(4-methylbenzenesulfonyl)-6-N-[N′α-(4-nitrobenzenesulfonyl)-S-tryptophanyl]-2,6-diaminohexanol]
Ki: 27 nM

CC(=O)N[C@@H](Cc1c[nH]c2ccccc12)C(=O)NCCCC[C@@H](CO)N(CC(C)C)S(=O)(=O)c1ccc(C)cc1 [Example 131, (2S,2′S) 2-N-Isobutyl-2-N-(4-methylbenzenesulfonyl)-6-N-(N′α-acetyl-S-tryptophanyl)-2,6-diaminohexanol]
Ki: 3 nM

COc1ccc(CC(=O)N[C@@H](Cc2ccccc2)C(=O)NCCCC[C@@H](C(=O)O)N(CC(C)C)S(=O)(=O)c2ccc(C)cc2)cc1 [Example 132, Nα-Isobutyl-Nα-(4-methylbenzenesulfonyl)-Nε-[N′α-(4-methoxyphenylacetyl)-L-phenylalanyl]-L-lysine]
Ki: 0.257 nM
